In test [1] the target is PTPN11-E76K mutant enzyme (Homo sapiens (Human), UniProt Q06124, E76K). Kind of test: PTPN11 Enzymatic Assay (DiFMUP phosphatase activity). The following applies: DiFMUP 50 μM, 30 min preincubation. The test is classed as biochemical. The procedure: Reaction was initiated by addition of DiFMUP (50 μM) at room temperature in 384-well black plate with a final reaction volume of 20 uL in assay buffer. […] Dose-response curves were analyzed using IC50 regression curve fitting (GeneData Screener). Curves were normalized to a high controls without inhibitor, and low controls without enzyme.
Sequence of PTPN11-E76K mutant enzyme (Q06124 whole entry E76K): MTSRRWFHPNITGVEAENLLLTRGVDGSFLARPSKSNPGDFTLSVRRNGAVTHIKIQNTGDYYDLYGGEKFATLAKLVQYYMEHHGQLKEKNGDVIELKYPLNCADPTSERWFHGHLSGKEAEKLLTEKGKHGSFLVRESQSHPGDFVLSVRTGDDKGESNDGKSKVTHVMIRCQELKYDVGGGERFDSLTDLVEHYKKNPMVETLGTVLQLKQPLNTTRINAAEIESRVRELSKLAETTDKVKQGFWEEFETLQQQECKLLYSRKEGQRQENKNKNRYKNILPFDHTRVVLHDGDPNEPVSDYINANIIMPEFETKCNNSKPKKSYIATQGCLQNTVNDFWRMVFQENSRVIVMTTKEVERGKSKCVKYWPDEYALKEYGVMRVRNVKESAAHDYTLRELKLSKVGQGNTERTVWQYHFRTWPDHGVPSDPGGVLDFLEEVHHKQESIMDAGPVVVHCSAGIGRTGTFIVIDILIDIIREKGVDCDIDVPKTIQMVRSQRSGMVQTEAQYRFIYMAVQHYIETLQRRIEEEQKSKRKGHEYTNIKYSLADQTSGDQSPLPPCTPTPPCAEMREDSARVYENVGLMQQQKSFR

Test [2] has as its system Phospho-ERK levels in KYSE-520 cells. Kind of test: pERK AlphaScreen Protocol. The class given is cell-based. The following applies: Homo sapiens, KYSE-520, 2 h, read-out: PERK Avg IC50. The method, then:
KYSE-520 cells (10 k cells/well) were grown in 384-well plate in 20 uL of medium (RPMI-1640, without phenol red, containing 10% FBS) at 37° C. with 5% CO2 overnight. DMSO (control) or increasing concentrations of compounds were diluted in medium, added to the 384-well plate (5 uL/well, final DMSO concentration of 1%), and cells were then incubated with compounds for 2 hr. Phospho-ERK levels were measured using phospho-ERK1/2 AlphaScreen SureFire (PerkinElmer, TGRESB10K) following manufacturer's recommendations. Dose-response curves were analyzed using IC50 regression curve fitting (GeneData Screener). Curves were normalized to a high control without inhibitor (DMSO only), and low control (1 μM selumetinib).
Background: In Alpha technology, singlet oxygen from a donor bead excites a nearby acceptor bead.

The mark [3] stands for this setting: full length PTPN11-E76K mutant enzyme 250 pM, read-out: PTPN11-E76K Avg IC50.
[4] abbreviates: KYSE-520 cells, 2 hr compound incubation, phospho-ERK1/2 AlphaScreen SureFire.

The structures appear in SMILES notation. Counter-ions that a name gives are not always drawn. Like-named read-outs stand apart in the source and are kept apart here.

Take `CC1(N)CCN(c2cnc3c(-c4ccnc(N)c4Cl)n[nH]c3n2)CC1` [Example 106, 4-(6-(4-Amino-4-methylpiperidin-1-yl)-1H-pyrazolo[3,4-b]pyrazine-3-yl)-3-chloropyridin-2-amine]: the IC50 – broadly, the concentration that inhibits the measured activity by half – in test [1] (setting [3]) is 0.253 µM; in test [2] (setting [4]), 0.174 µM.

`NC1C(F)(F)CCC12CCN(c1cnc3c(-c4cccc(Cl)c4Cl)n[nH]c3n1)CC2` (single isomer, unassigned; isomer a) [Example 65A, 8-(3-(2,3-Dichlorophenyl)-1H-pyrazolo[3,4-b]pyrazin-6-yl)-2,2-difluoro-8-azaspiro[4.5]decan-1-amine, isomer A]: the concentration for half-maximal inhibition (IC50) in test [1] (PTPN11-E76K Avg IC50, full length PTPN11-E76K mutant enzyme 250 pM) amounted to 0.235 µM; in test [2] (setting [4]), 0.093 µM.

For the molecule `N[C@@H]1CCCC12CCN(c1cnc3c(-c4cc(Cl)cc(Cl)c4)n[nH]c3n1)CC2` [Example 45, (R)-8-(3-(3,5-dichloro-phenyl)-1H-pyrazolo[3,4-b]-pyrazin-6-yl)-8-aza-spiro[4.5]decan-1-amine], the 50% inhibitory concentration (IC50) came out at 0.355 µM in test [1] (setting [3]) and 1.42 µM in test [2] (setting [4]).

Consider `CNc1nccc(-c2n[nH]c3nc(N4CCC5(CCC[C@H]5N)CC4)cnc23)c1Cl` [Example 111, (R)-8-(3-(3-Chloro-2-(methylamino)pyridin-4-yl)-1H-pyrazolo[3,4-b]pyrazin-6-yl)-8-azaspiro[4.5]decan-1-amine], for which the 50% inhibitory concentration (IC50) in test [1] (setting [3]) was found to be 0.043 µM; in test [2] (setting [4]), 0.02 µM.

Turning to `N[C@@H]1CCCC12CCN(c1cnc3c(-c4cn[nH]c4C(F)(F)F)n[nH]c3n1)CC2` [Example 102, (R)-8-(3-(5-(Trifluoromethyl)-1H-pyrazol-4-yl)-1H-pyrazolo[3,4-b]pyrazin-6-yl)-8-azaspiro[4.5]decan-1-amine], the half-maximal inhibitory concentration (IC50) in test [1] (setting [3]) was 2.15 µM; in test [2] (setting [4]), 1.18 µM.

Regarding `CC1(CN)CCN(c2cnc3c(-c4ccc(Cl)cc4)n[nH]c3n2)CC1` [Example 16], the half-inhibitory concentration (IC50) in test [1] (setting [3]) was 0.169 µM; in test [2] (setting [4]), 0.309 µM.

With `CC1(N)CCN(c2cnc3c(-c4cccnc4Cl)n[nH]c3n2)CC1` [Example 23, 1-(3-(2-chloro-pyridin-3-yl)-1H-pyrazolo[3,4-b]-pyrazin-6-yl)-4-methyl-piperidin-4-amine], the results for the half-inhibitory concentration (IC50) in test [1] (setting [3]) and in test [2] (setting [4]) were 1.82 µM and 0.428 µM, respectively.

For `NC1(CO)CCN(c2cnc3c(-c4cccc(Cl)c4Cl)n[nH]c3n2)CC1` [Example 57, (4-Amino-1-(3-(2,3-dichlorophenyl)-1H-pyrazolo[3,4-b]pyrazin-6-yl)piperidin-4-yl)-methanol], the half-inhibitory concentration (IC50) in test [1] (setting [3]) was determined as 0.104 µM; in test [2] (setting [4]), 0.053 µM.

As to `CC1(N)CCN(c2cnc3c(-c4ccc(Cl)c(Cl)c4)n[nH]c3n2)CC1` [Example 18, 1-(3-(3,4-dichloro-phenyl)-1H-pyrazolo[3,4-b]-pyrazin-6-yl)-4-methylpiperidin-4-amine], the IC50 was 0.141 µM in test [1] (setting [3]) and 0.667 µM in test [2] (setting [4]).

Take `NC1(CO)CCN(c2cnc3c(-c4c(F)cccc4Cl)n[nH]c3n2)CC1` [Example 121, (4-Amino-1-(3-(2-chloro-6-fluorophenyl)-1H-pyrazolo[3,4-b]pyrazin-6-yl)-piperidin-4-yl)methanol]: the results for the IC50 in test [1] (setting [3]) and in test [2] (setting [4]) were 1.08 µM and 1.65 µM, respectively.

Turning to `CC1(N)CCN(c2cnc3c(-c4ccnc(O)c4Cl)n[nH]c3n2)CC1` [Example 117, 4-(6-(4-Amino-4-methylpiperidin-1-yl)-1H-pyrazolo[3,4-b]pyrazin-3-yl)-3-chloropyridin-2-ol], the IC50 in test [1] (setting [3]) amounted to 1.94 µM; in test [2] (setting [4]) it was 4.78 µM.

On to `CC1(CN)CCN(c2cnc3c(-c4cn[nH]c4C(F)(F)F)n[nH]c3n2)CC1` [Example 103, (4-Methyl-1-(3-(5-(trifluoromethyl)-1H-pyrazol-4-yl)-1H-pyrazolo[3,4-b]-pyrazine-6-yl)piperidin-4-yl)methanamine], for which the IC50 in test [1] (setting [3]) amounted to 2.6 µM; in test [2] (setting [4]), 1.63 µM.

As to `Nc1nccc(-c2n[nH]c3nc(N4CCC5(CCC[C@H]5N)CC4)cnc23)c1Cl` [Example 130, (1R)-8-[3-(2-amino-3-chloropyridin-4-yl)-1H-pyrazolo[3,4-b]pyrazin-6-yl]-8-azaspiro[4.5]decan-1-amine], the half-inhibitory concentration (IC50) in test [1] (setting [3]) was found to be 0.083 µM; in test [2] (setting [4]), 0.065 µM.

For `CC1(N)CCN(c2cnc3c(-c4ccc(F)c(Cl)c4)n[nH]c3n2)CC1` [Example 19, 1-(3-(3-Chloro-4-fluorophenyl)-1H-pyrazolo[3,4-b]-pyrazin-6-yl)-4-methylpiperidin-4-amine], the figures for the 50% inhibitory concentration (IC50) in test [1] (setting [3]) and in test [2] (setting [4]) were 0.51 µM and 0.534 µM, respectively.

For `Cc1c(Cl)cccc1-c1n[nH]c2nc(N3CCC(C)(CN)CC3)cnc12` [Example 28, (1-(3-(3-chloro-2-methylphenyl)-1H-pyrazolo[3,4-b]-pyrazin-6-yl)-4-methylpiperidin-4-yl) methanamine], the half-maximal inhibitory concentration (IC50) in test [1] (setting [3]) was 0.142 µM; in test [2] (setting [4]) it was 0.19 µM.

As to `N[C@@H]1COCC12CCN(c1cnc3c(-c4ccccc4Cl)n[nH]c3n1)CC2` [Example 39, (S)-8-(3-(2-chloro-phenyl)-1H-pyrazolo[3,4-b]-pyrazin-6-yl)-2-oxa-8-azaspiro[4.5]-decan-4-amine], the concentration for half-maximal inhibition (IC50) worked out at 0.158 µM in test [1] (setting [3]) and 0.103 µM in test [2] (setting [4]).

For the molecule `CC1(CN)CCN(c2cnc3c(-c4cccc(C(F)(F)F)c4)n[nH]c3n2)CC1` [Example 22, (4-methyl-1-(3-(3-(trifluoromethyl)-phenyl)-1H-pyrazolo[3,4-b]pyrazin-6-yl)-piperidin-4-yl)-methanamine], the IC50 in test [1] (setting [3]) stood at 1.75 µM; in test [2] (setting [4]), 0.976 µM.

For `CCC1(N)CCN(c2cnc3c(-c4ccnc(N)c4Cl)n[nH]c3n2)CC1` [Example 135, 4-[6-(4-amino-4-ethylpiperidin-1-yl)-1H-pyrazolo[3,4-b]-pyrazin-3-yl]-3-chloropyridin-2-amine], the figures for the half-inhibitory concentration (IC50) in test [1] (setting [3]) and in test [2] (setting [4]) were 0.529 µM and 0.122 µM, respectively.

With `CC1(CN)CCN(c2cnc3c(-c4cccc(Cl)c4)n[nH]c3n2)CC1` [Example 9, (1-(3-(3-chloro-phenyl)-1H-pyrazolo[3,4-b]-pyrazin-6-yl)-4-methylpiperidin-4-yl)methanamine], the half-inhibitory concentration (IC50) in test [1] (setting [3]) turned out to be 0.367 µM; in test [2] (setting [4]) it was 0.482 µM.

With `CC1(CN)CCN(c2cnc3c(-c4ccncc4Cl)n[nH]c3n2)CC1` [Example 31, (1-(3-(3-chloro-pyridin-4-yl)-1H-pyrazolo[3,4-b]-pyrazin-6-yl)-4-methylpiperidin-4-yl) methanamine], the IC50 was determined as 0.929 µM in test [1] (setting [3]) and 0.71 µM in test [2] (setting [4]).

On to `N[C@@H]1CCCC12CCN(c1cnc3c(-c4ccc(Cl)cc4)n[nH]c3n1)CC2` [Example 17, (R)-8-(3-(4-chloro-phenyl)-1H-pyrazolo[3,4-b]-pyrazin-6-yl)-8-aza-spiro[4.5]decan-1-amine], for which the IC50 in test [1] (setting [3]) was 0.118 µM; in test [2] (setting [4]), 0.082 µM.

On to `Nc1cccc(-c2n[nH]c3nc(N4CCC5(CCC[C@H]5N)CC4)cnc23)c1Cl` [Example 131, (1R)-8-[3-(3-amino-2-chlorophenyl)-1H-pyrazolo[3,4-b]-pyrazin-6-yl]-8-aza-spiro[4.5]decan-1-amine], for which the values for the IC50 in test [1] (setting [3]) and in test [2] (setting [4]) were 0.084 µM and 0.035 µM, respectively.

For the molecule `CC1(CN)CCN(c2cnc3c(-c4ccccc4Cl)n[nH]c3n2)CC1` [Example 29], the IC50 in test [1] (setting [3]) came to 0.178 µM; in test [2] (setting [4]), 0.087 µM.

Turning to `N[C@@H]1CCCC12CCN(c1cnc3c(-c4ccnc(O)c4Cl)n[nH]c3n1)CC2` [Example 108, (R)-4-(6-(1-Amino-8-azaspiro[4.5]decan-8-yl)-1H-pyrazolo[3,4-b]pyrazin-3-yl)-3-chloropyridin-2-ol trifluoroacetate], the concentration for half-maximal inhibition (IC50) in test [1] (setting [3]) came out at 0.726 µM; in test [2], 6.8 µM.

As for `CC1(CN)CCN(c2cnc3c(-c4cccc(N)c4Cl)n[nH]c3n2)CC1` [Example 132, 3-{6-[4-(amino-methyl)-4-methyl-piperidin-1-yl]-1H-pyrazolo[3,4-b]-pyrazin-3-yl}-2-chloroaniline], the 50% inhibitory concentration (IC50) in test [1] (setting [3]) is 0.119 µM; in test [2] (setting [4]), 0.063 µM.

Regarding `CC1(CN)CCN(c2cnc3c(-c4cc(N)ncc4Cl)n[nH]c3n2)CC1` [Example 133, 4-{6-[4-(amino-methyl)-4-methyl-piperidin-1-yl]-1H-pyrazolo[3,4-b]-pyrazin-3-yl}-5-chloropyridin-2-amine], the IC50 in test [1] (setting [3]) worked out at 0.84 µM; in test [2] (setting [4]) it was 0.533 µM.

With `CC(N)C1(C)CCN(c2cnc3c(-c4ccnc(N)c4Cl)n[nH]c3n2)CC1` (single isomer, unassigned) [Example 113a, 4-(6-(4-(1-Aminoethyl)-4-methylpiperidin-1-yl)-1H-pyrazolo[3,4-b]pyrazin-3-yl)-3-chloropyridin-2-amine], the values for the IC50 in test [1] (setting [3]) and in test [2] (setting [4]) were 0.18 µM and 0.1 µM, respectively.

Consider `Nc1cc(-c2n[nH]c3nc(N4CCC5(CC4)COC[C@H]5N)cnc23)c(Cl)cn1` [Example 137, (4S)-8-[3-(2-amino-5-chloropyridin-4-yl)-1H-pyrazolo[3,4-b]pyrazin-6-yl]-2-oxa-8-azaspiro[4.5]-decan-4-amine], for which the IC50 amounted to 0.504 µM in test [1] (setting [3]) and 1.03 µM in test [2] (setting [4]).

These data come from US10280171B2, “Heterocyclic inhibitors of PTPN11” (priority 2016, dated 2019).
